US10125358B2, “Methods and compounds for increasing threonyl-tRNA synthetase activity” (UNIVERSITY OF VERMONT AND STATE AGRICULTURAL COLLEGE, priority 2012, dated 2018)
“Also recorded” adds a separate entry of the source.

Legend:
TARS [1] = molecular target: T1, TARS (Homo sapiens, UniProt P26639); experiment: Ki of borrelidin compounds for TARS; assay type: biochemical; details: calculated; data not shown
T1 sequence (P26639 1-723): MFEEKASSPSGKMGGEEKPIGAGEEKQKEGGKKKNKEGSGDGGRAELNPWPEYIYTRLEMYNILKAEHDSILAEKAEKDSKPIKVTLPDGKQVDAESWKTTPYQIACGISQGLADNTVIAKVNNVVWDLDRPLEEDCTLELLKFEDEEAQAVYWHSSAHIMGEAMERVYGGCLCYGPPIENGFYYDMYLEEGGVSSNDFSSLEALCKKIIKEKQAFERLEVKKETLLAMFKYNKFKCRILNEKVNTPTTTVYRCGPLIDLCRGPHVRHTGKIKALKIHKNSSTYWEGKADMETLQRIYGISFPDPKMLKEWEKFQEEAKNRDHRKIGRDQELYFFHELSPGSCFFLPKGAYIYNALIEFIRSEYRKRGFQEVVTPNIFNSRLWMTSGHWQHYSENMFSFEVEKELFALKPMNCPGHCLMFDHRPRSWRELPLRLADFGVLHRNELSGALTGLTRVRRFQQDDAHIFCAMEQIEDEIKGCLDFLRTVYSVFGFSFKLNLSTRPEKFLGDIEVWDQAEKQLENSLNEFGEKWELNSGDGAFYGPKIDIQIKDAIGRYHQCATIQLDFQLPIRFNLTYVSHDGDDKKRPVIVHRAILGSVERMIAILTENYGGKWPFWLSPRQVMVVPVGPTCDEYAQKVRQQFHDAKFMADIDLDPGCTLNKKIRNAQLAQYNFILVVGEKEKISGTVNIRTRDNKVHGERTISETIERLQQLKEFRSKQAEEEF

TARS [2] = molecular target: T1, TARS; experiment: Ap4G formation assay (TLC, [α-32P]-GTP); assay type: biochemical; design: His6 (N); made in house; host or cells: E. coli Rosetta 2 (DE3)pLysS, plasmid pET28a hctThrRS; details: human TARS, 10 μM compound
TARS [3] = molecular target: T1, TARS; experiment: Ap4A formation assay (TLC, [α-32P]-ATP); assay type: biochemical; design: His6 (N); made in house; host or cells: E. coli Rosetta 2 (DE3)pLysS, plasmid pET28a hctThrRS; details: 10 μM compound
SKOV-3 cells = experiment: HIF-1α stabilization in hypoxia (Western blot); assay type: cell-based; details: for HIF-1α protein stabilization: hypoxia (2% O2), 6 h
Protocol: After treatments, cells were harvested into sample buffer containing: 0.2 M Tris-HCL, 4% SDS, 4% β-mercaptoethanol, 40% glycerol, 4 μM pyronin Y. Extracts were sheared through a 24-gauge syringe. Samples were separated by 10% SDS-PAGE and transferred to nitrocellulose membrane and probed with rabbit polyclonal anti-TARS (1:500; Santa Cruz Biotechnology, Dallas, Tex.) or monoclonal anti-HIF-1α (BD Transduction Laboratories, [BD Biosciences, San Jose, Calif.]) (Lounsbury, Beddow et al. 1994). Secondary antibodies were HRP-goat-anti-mouse and HRP-goat-anti-rabbit (1:5,000; Jackson Laboratories, Bar Harbor, Me.).

TARS [4] = molecular target: T1, TARS; experiment: GTPase (GTP hydrolysis) assay; assay type: biochemical; design: His6 (N); made in house; host or cells: E. coli Rosetta 2 (DE3)pLysS, plasmid pET28a hctThrRS; details: 10 μM compound
[5] = tested on: chorioallantoic membrane (CAM) of chicken embryos; experiment: Chick chorioallantoic membrane (CAM) assay; assay type: in vivo; details: purified protein applied daily to gelfoam sponge, 72 h
Protocol: Chick Chorioallantoic Membrane Assay—
Fertilized chicken eggs (Sunrise Farms, Catskill, N.Y.) day 1-2 post-laying were incubated in a humidified incubator at 37° C. for 72 h. Cleaned eggs were cracked and plated in a sterile 10 cm^2 tissue culture-treated dish and incubated at 37° C. for another 7 days. On developmental day 10, 1 mm^3 sterile gelatin sponge pieces (Surgifoam®; Johnson & Johnson Wound Management, Somerville, N.J.) were placed within the outer one-third of the membrane between large vessels. […] All compounds were applied in 10 μl to the CAM every 24 h for 72 h. Images were taken using a Leica MZ6 stereomicroscope every 24 h. Compounds were scored according to a modified version of Intensity Scoring as previously described (Ribatti, Nico et al. 2006). Briefly, each experimental condition was given a blinded score from 0-5 based on the change in the extent of vessel convergence and formation in proximity to the sponge from day 0 to day 3. Total score is averaged individual experimental condition scores from at least 15 replicates.
Fertilized chicken embryos were cultured ex-ova and, starting at developmental day 10, agents were applied daily to gelfoam sponges on the CAM. Images were recorded daily over 72 h and scored blindly according to a modified version Intensity Scoring as previously described (Ribatti, Nico et al. 2006). Additional details regarding methods are provided in the Methods and Materials section of Example 1.

HUVEC = experiment: Transwell migration assay; assay type: cell-based, human; details: 100 nM protein in migration compartment, 4 h
Protocol: Transwell Migration Assay—
Migration was assessed using transwell inserts (Svensson, Kucharzewska et al. 2011). […] Cultures were incubated for 4 h, fixed in 10% formalin, and stained with 10 μg/ml DAPI solution (Roche) following removal of cells from the top layer of the chamber with a cotton swab. Migrated cells were imaged using a 4× objective on the Olympus IX70 Inverted microscope (Olympus). DAPI-stained nuclei were counted using ImageJ software.

[6] = LARS steady state ATPase activity (32P-ATP to AMP); assay type: biochemical; details: 1 μM human LARS
Protocol: LARS steady state ATPase activity was determined using the same procedure as for TARS aminoacylation with the following modifications. […] ATP (PerkinElmer, Waltham, Mass.) was added. Reactions were incubated for 3 minutes at 37° C. and initiated with the addition of 1 μM human LARS. At various time points 5 μl aliquots were quenched in 45 μl of 500 mM sodium acetate and 0.1% sodium dodecyl sulfate. For each sample, 1 μl was spotted onto a CCM cellulose PEI F plates (EMD) and resolved via thin-layer chromatography in 0.75 M potassium phosphate buffer mobile phase. Radioactive signals were detected via phosphorimaging and AMP production overtime was quantified using Quantity One v 4.6.6 software (Bio-Rad, Hercules, Calif.).

| Molecule | Ki (TARS [1]) | Ap4G synthesis, inhibition (qualitative) (TARS [2]) | Ap4A synthesis, inhibition (qualitative) (TARS [3]; human TARS) | decrease in Ap4A formation activity (TARS [3]; wildtype TARS) | HIF-1α transcription (SKOV-3 cells; SK-OV3 cells responding to hypoxia) | HIF-1α protein stabilization (SKOV-3 cells) | HIF-1α protein stabilization (SKOV-3 cells; listed as BC144) | change of TARS GTPase activity upon treatment with inhibitor (TARS [4]) | CAM vessel formation / vascularity, effect of applied synthetase [5] | migration of endothelial cells (HUVEC) | LARS enzyme activity (conversion of 32P-ATP to AMP) [6] |
| --- | --- | --- | --- | --- | --- | --- | --- | --- | --- | --- | --- |
| C[C@@H]1C[C@H](C)C[C@H](C)[C@@H](O)CC(=O)O[C@H]([C@@H]2CCC[C@H]2C(=O)O)C/C=C/C=C(/C#N)[C@H](O)[C@@H](C)C1 [borrelidin] | 4.6 nM | at least partially inhibited | at least partially inhibited | 59.4% | no change in HIF-1α transcription | reduce HIF-1α stabilization | diminished the levels of HIF-1α protein stabilization | no observable change | – | – | – |
| LARS: N-terminal HIS6-tagged human leucyl tRNA synthetase purified from E. coli | – | – | – | – | – | – | – | – | no observable effect; also recorded: no effect on angiogenesis | did not affect migration | exhibits enzyme activity |
